Test results taken from ChEMBL document CHEMBL4033677, “Design and synthesis of pyrazolo[3,4-d]pyrimidines: Nitric oxide releasing compounds targeting hepatocellular carcinoma” (Bioorg Med Chem, 2017).

Experiments:
Type in all cases: functional
HL-60(TB) = experiment: Growth inhibition of human HL-60(TB) cells assessed as cell growth at 10^-5 M incubated for 48 hrs by sulforhodamine B assay relative to control; conditions: HL-60, 48 h, read-out: Activity
K562 = experiment: Growth inhibition of human K562 cells assessed as cell growth at 10^-5 M incubated for 48 hrs by sulforhodamine B assay relative to control; conditions: K562, 48 h, read-out: Activity
A549 = experiment: Growth inhibition of human A549/ATCC cells assessed as cell growth at 10^-5 M incubated for 48 hrs by sulforhodamine B assay relative to control; conditions: A549, 48 h, read-out: Activity
EKVX = experiment: Growth inhibition of human EKVX cells assessed as cell growth at 10^-5 M incubated for 48 hrs by sulforhodamine B assay relative to control; conditions: read-out: Activity
NCI-H522 = experiment: Growth inhibition of human NCI-H522 cells assessed as cell growth at 10^-5 M incubated for 48 hrs by sulforhodamine B assay relative to control; conditions: NCI-H522, 48 h, read-out: Activity
HCT-116 = experiment: Growth inhibition of human HCT116 cells assessed as cell growth at 10^-5 M incubated for 48 hrs by sulforhodamine B assay relative to control; conditions: HCT-116, 48 h, read-out: Activity
HT-29 = experiment: Growth inhibition of human HT-29 cells assessed as cell growth at 10^-5 M incubated for 48 hrs by sulforhodamine B assay relative to control; conditions: HT-29, 48 h, read-out: Activity
SF-268 = experiment: Growth inhibition of human SF268 cells assessed as cell growth at 10^-5 M incubated for 48 hrs by sulforhodamine B assay relative to control; conditions: SF-268, 48 h, read-out: Activity
SF-295 = experiment: Growth inhibition of human SF295 cells assessed as cell growth at 10^-5 M incubated for 48 hrs by sulforhodamine B assay relative to control; conditions: SF-295, 48 h, read-out: Activity
SF-539 = experiment: Growth inhibition of human SF539 cells assessed as cell growth at 10^-5 M incubated for 48 hrs by sulforhodamine B assay relative to control; conditions: SF-539, 48 h, read-out: Activity
SNB-19 = experiment: Growth inhibition of human SNB19 cells assessed as cell growth at 10^-5 M incubated for 48 hrs by sulforhodamine B assay relative to control; conditions: SNB-19, 48 h, read-out: Activity
U-251 = experiment: Growth inhibition of human U251 cells assessed as cell growth at 10^-5 M incubated for 48 hrs by sulforhodamine B assay relative to control; conditions: U-251, 48 h, read-out: Activity
LOX IMVI = experiment: Growth inhibition of human LOXIMVI cells assessed as cell growth at 10^-5 M incubated for 48 hrs by sulforhodamine B assay relative to control; conditions: read-out: Activity
M14 = experiment: Growth inhibition of human M14 cells assessed as cell growth at 10^-5 M incubated for 48 hrs by sulforhodamine B assay relative to control; conditions: M14, 48 h, read-out: Activity
MDA-MB-435 = experiment: Growth inhibition of human MDA-MB-435 cells assessed as cell growth at 10^-5 M incubated for 48 hrs by sulforhodamine B assay relative to control; conditions: MDA-MB-435, 48 h, read-out: Activity
SK-MEL-2 = experiment: Growth inhibition of human SK-MEL-2 cells assessed as cell growth at 10^-5 M incubated for 48 hrs by sulforhodamine B assay relative to control; conditions: SK-MEL-2, 48 h, read-out: Activity
SK-MEL-28 = experiment: Growth inhibition of human SK-MEL-28 cells assessed as cell growth at 10^-5 M incubated for 48 hrs by sulforhodamine B assay relative to control; conditions: SK-MEL-28, 48 h, read-out: Activity
IGROV-1 = experiment: Growth inhibition of human IGROV1 cells assessed as cell growth at 10^-5 M incubated for 48 hrs by sulforhodamine B assay relative to control; conditions: IGROV-1, 48 h, read-out: Activity
OVCAR-3 = experiment: Growth inhibition of human OVCAR3 cells assessed as cell growth at 10^-5 M incubated for 48 hrs by sulforhodamine B assay relative to control; conditions: OVCAR-3, 48 h, read-out: Activity
OVCAR-4 = experiment: Growth inhibition of human OVCAR4 cells assessed as cell growth at 10^-5 M incubated for 48 hrs by sulforhodamine B assay relative to control; conditions: OVCAR-4, 48 h, read-out: Activity
OVCAR-5 = experiment: Growth inhibition of human OVCAR5 cells assessed as cell growth at 10^-5 M incubated for 48 hrs by sulforhodamine B assay relative to control; conditions: OVCAR-5, 48 h, read-out: Activity
OVCAR-8 = experiment: Growth inhibition of human OVCAR8 cells assessed as cell growth at 10^-5 M incubated for 48 hrs by sulforhodamine B assay relative to control; conditions: OVCAR-8, 48 h, read-out: Activity
786-0 = experiment: Growth inhibition of human 786-0 cells assessed as cell growth at 10^-5 M incubated for 48 hrs by sulforhodamine B assay relative to control; conditions: 786-0, 48 h, read-out: Activity
CAKI-1 = experiment: Growth inhibition of human Caki1 cells assessed as cell growth at 10^-5 M incubated for 48 hrs by sulforhodamine B assay relative to control; conditions: CAKI-1, 48 h, read-out: Activity
RXF 393 = experiment: Growth inhibition of human RXF393 cells assessed as cell growth at 10^-5 M incubated for 48 hrs by sulforhodamine B assay relative to control; conditions: RXF 393, 48 h, read-out: Activity
SN12C = experiment: Growth inhibition of human SN12C cells assessed as cell growth at 10^-5 M incubated for 48 hrs by sulforhodamine B assay relative to control; conditions: read-out: Activity
TK-10 = experiment: Growth inhibition of human TK10 cells assessed as cell growth at 10^-5 M incubated for 48 hrs by sulforhodamine B assay relative to control; conditions: TK-10, 48 h, read-out: Activity
DU-145 = experiment: Growth inhibition of human DU145 cells assessed as cell growth at 10^-5 M incubated for 48 hrs by sulforhodamine B assay relative to control; conditions: DU-145, 48 h, read-out: Activity
MDA-MB-231 = experiment: Growth inhibition of human MDA-MB-231 cells assessed as cell growth at 10^-5 M incubated for 48 hrs by sulforhodamine B assay relative to control; conditions: MDA-MB-231, 48 h, read-out: Activity
BT-549 = experiment: Growth inhibition of human BT549 cells assessed as cell growth at 10^-5 M incubated for 48 hrs by sulforhodamine B assay relative to control; conditions: BT-549, 48 h, read-out: Activity
T47D = experiment: Growth inhibition of human T47D cells assessed as cell growth at 10^-5 M incubated for 48 hrs by sulforhodamine B assay relative to control; conditions: read-out: Activity
MDA-MB-468 = experiment: Growth inhibition of human MDA-MB-468 cells assessed as cell growth at 10^-5 M incubated for 48 hrs by sulforhodamine B assay relative to control; conditions: MDA-MB-468, 48 h, read-out: Activity

Structure (SMILES)	growth at 10 µM (HL-60(TB)) [%]	growth at 10 µM (K562) [%]	growth at 10 µM (A549) [%]	growth at 10 µM (EKVX) [%]	growth at 10 µM (NCI-H522) [%]	growth at 10 µM (HCT-116) [%]	growth at 10 µM (HT-29) [%]	growth at 10 µM (SF-268) [%]	growth at 10 µM (SF-295) [%]	growth at 10 µM (SF-539) [%]	growth at 10 µM (SNB-19) [%]	growth at 10 µM (U-251) [%]	growth at 10 µM (LOX IMVI) [%]	growth at 10 µM (M14) [%]	growth at 10 µM (MDA-MB-435) [%]	growth at 10 µM (SK-MEL-2) [%]	growth at 10 µM (SK-MEL-28) [%]	growth at 10 µM (IGROV-1) [%]	growth at 10 µM (OVCAR-3) [%]	growth at 10 µM (OVCAR-4) [%]	further results
Cc1nc(Nc2ccc(OCCCBr)cc2)c2cnn(-c3ccccc3)c2n1	97.6	102	72.2	76.5	81.6	67.2	96.6	86.9	101	92.5	92.6	81.4	94.6	94.5	107	98	107	90.3	106	94.3	growth at 10 µM (OVCAR-5): 100%; growth at 10 µM (OVCAR-8): 75.7%; growth at 10 µM (786-0): 91.6%; growth at 10 µM (CAKI-1): 93.6%; growth at 10 µM (RXF 393): 104%; growth at 10 µM (SN12C): 91.8%; growth at 10 µM (TK-10): 113%; growth at 10 µM (DU-145): 106%; growth at 10 µM (MDA-MB-231): 80.4%; growth at 10 µM (BT-549): 92.9%; growth at 10 µM (T47D): 83.6%; growth at 10 µM (MDA-MB-468): 98.9%
BrCCCOc1ccc(Nc2ncnc3c2cnn3-c2ccccc2)cc1	95.8	105	90.7	83.2	78.4	96.7	99.4	86	107	92.5	97.7	94.6	98.1	100	101	98	107	80.5	97	93.3	growth at 10 µM (OVCAR-5): 104%; growth at 10 µM (OVCAR-8): 92.7%; growth at 10 µM (786-0): 106%; growth at 10 µM (CAKI-1): 98.2%; growth at 10 µM (RXF 393): 105%; growth at 10 µM (SN12C): 94%; growth at 10 µM (TK-10): 128%; growth at 10 µM (DU-145): 108%; growth at 10 µM (MDA-MB-231): 96.9%; growth at 10 µM (BT-549): 93.4%; growth at 10 µM (T47D): 84.2%; growth at 10 µM (MDA-MB-468): 99.7%
Cc1nc(Nc2ccc(OCCCBr)cc2)c2c(C)nn(-c3ccccc3)c2n1	96.2	100	78.7	90.9	76.1	81.3	93.7	93.8	96.3	98.3	94.5	90.5	98.3	94	100	91.5	105	91.8	107	99.5	growth at 10 µM (OVCAR-5): 91.4%; growth at 10 µM (OVCAR-8): 94.6%; growth at 10 µM (786-0): 83.6%; growth at 10 µM (CAKI-1): 94.8%; growth at 10 µM (RXF 393): 97.9%; growth at 10 µM (SN12C): 78.8%; growth at 10 µM (TK-10): 94.5%; growth at 10 µM (DU-145): 109%; growth at 10 µM (MDA-MB-231): 94%; growth at 10 µM (BT-549): 91.6%; growth at 10 µM (T47D): 83.5%; growth at 10 µM (MDA-MB-468): 95%
Cc1nn(-c2ccccc2)c2ncnc(Nc3ccc(OCCCBr)cc3)c12	104	100	60.9	92.5	45.6	81.5	58.2	103	93	96	94.7	89	106	91.3	100	84	101	105	103	99.6	growth at 10 µM (OVCAR-5): 103%; growth at 10 µM (OVCAR-8): 94.2%; growth at 10 µM (786-0): 64.3%; growth at 10 µM (CAKI-1): 92.1%; growth at 10 µM (RXF 393): 102%; growth at 10 µM (SN12C): 95.2%; growth at 10 µM (TK-10): 89.9%; growth at 10 µM (DU-145): 108%; growth at 10 µM (MDA-MB-231): 87.4%; growth at 10 µM (BT-549): 97.8%; growth at 10 µM (T47D): 84.8%; growth at 10 µM (MDA-MB-468): 95.5%
